# In PMC3770053 (Biochemistry, 2013):
# Assays:
# Experiment in all cases: stopped-flow fluorescence titration, T
# Type in all cases: binding
# [1] = molecular target: Pol I(KF) (Klenow fragment of E. coli DNA polymerase I), N-His6/D424A/L744C/C907S, termed WT (Escherichia coli, UniProt P00582, C907S/D424A/L744C/Y766F)
# [2] = molecular target: Pol I(KF) (Klenow fragment of E. coli DNA polymerase I), N-His6/D424A/L744C/C907S, termed WT (Escherichia coli, UniProt P00582, C907S/D424A/L744C/Y766A)
# [3] = molecular target: Pol I(KF) (Klenow fragment of E. coli DNA polymerase I), N-His6/D424A/L744C/C907S, termed WT (Escherichia coli, UniProt P00582, C907S/D424A/E710A/L744C)
# [4] = molecular target: Pol I(KF) (Klenow fragment of E. coli DNA polymerase I), N-His6/D424A/L744C/C907S, termed WT (Escherichia coli, UniProt P00582, C907S/D424A/E710Q/L744C)
# [5] = molecular target: Pol I(KF) (Klenow fragment of E. coli DNA polymerase I), N-His6/D424A/L744C/C907S, termed WT (Escherichia coli, UniProt P00582, C907S/D424A/L744C)
Structure (SMILES),Kd [1] [µM],Kd [2] [µM],Kd [3] [µM],Kd [4] [µM],Kd [5] [µM]
Nc1nc2c(ncn2[C@H]2C[C@H](O)[C@@H](COP(=O)(O)OP(=O)(O)OP(=O)(O)O)O2)c(=O)[nH]1 [dGTP],5.9 ± 2.4,2.9 ± 2,46 ± 13,10 ± 1,–
Nc1nc2c(ncn2[C@@H]2O[C@H](COP(=O)(O)OP(=O)(O)OP(=O)(O)O)[C@@H](O)[C@H]2O)c(=O)[nH]1 [rGTP],68,13,–,–,41
